pIC50: −log10 of the molar value.
What was measured:
Human HERG = Human HERG (Homo sapiens, UniProt Q12809)
Description: Human HERG transfected HEK293S cells were prepared and grown in-house. The collected cells were suspended in 50 mM Tris-HCl (pH 7.4 at 4° C.) and homogenized using a hand held Polytron PT 1200 disruptor set at full power for 20 sec on ice. The homogenates were centrifuged at 48,000×g at 4° C. for 20 min. The pellets were then resuspended, homogenized, and centrifuged once more in the same manner. The final pellets were resuspended in an appropriate volume of 50 mM Tris-HCl, 10 mM KCl, 1 mM MgCl2 (pH 7.4 at 4° C.), homogenized, aliquoted and stored at −80° C. until use. An aliquot of membrane fractions was used for protein concentration determination using BCA protein assay kit (PIERCE) and ARVOsx plate reader (Wallac).
Binding assays were conducted in a total volume of 200 μl in 96-well plates. Twenty μl of test compounds were incubated with 20 μl of [^3H]-dofetilide (Amersham, final 5 nM) and 160 μl of membrane homogenate (25 μg protein) for 60 minutes at room temperature. Nonspecific binding was determined by 10 μM dofetilide at the final concentration. Incubation was terminated by rapid vacuum filtration over 0.5% presoaked GF/B Betaplate filter using Skatron cell harvester with 50 mM Tris-HCl, 10 mM KCl, 1 mM MgCl2, pH 7.4 at 4° C. The filters were dried, put into sample bags and filled with Betaplate Scint. Radioactivity bound to filter was counted with Wallac Betaplate counter.

NR2B receptor = biological target: T1, NR2B receptor (Rattus norvegicus, UniProt P35439+Q00960); experiment: NR2B Binding Assay; details: forebrain P2 membranes of male CD rats; 5 nM [3H] NR2B ligand
T1 construct: Membranes were prepared by homogenization of forebrain of male CD rats; from tissue; host or cells: forebrain of male CD rats (P2 membrane)
Description: The activity of the cycloalkylene amide compounds of the present invention, as NR2B antagonists, is determined by their ability to inhibit the binding of NR2B subunit at its receptor sites employing radioactive ligands.
The NR^2B antagonist activity of the cycloalkylene amide compounds is evaluated by using the standard assay procedure described in, for example, J. Pharmacol., 331, pp 117-126, 1997. This method essentially involves determining the concentration of the individual compound required to reduce the amount of radiolabelled NR2B ligands by 50% at their receptor sites, thereby affording characteristic IC50 values for each compound tested. More specifically, the assay is carried out as follows.
Membranes were prepared by homogenization of forebrain of male CD rats weighing between 170˜190 g by using glass-Teflon homogenizer in 0.32 M sucrose at 4° C. The crude nuclear pellet was removed by centrifugation at 1000×g for 10 min, and the supernatant centrifuged at 17000×g for 25 min. The resulting pellet was resuspended in 5 mM Tris acetate pH 7.4 at 4° C. for 10 min to lyse cellular particles and again centrifuged at 17000×g. The resulting pellet (P2 membrane) was washed twice in Tris acetate, resuspended at 5.5 mg protein/ml and stored at −20° C. until use. All the manipulation was done on ice, and stock solution and equipment were kept on ice at all time.
For the saturation assay, receptor saturation was determined by incubating [^3H]-1-[(1S*,2S*)-2-hydroxy-2-(4-hydroxyphenyl)-1-methylethyl]-4-phenylpiperidin-4-ol and 50 μg protein of P2 membrane for 60 minutes at room temperature in a final 100 μl of incubation buffer (50 mM Tris HCl, pH7.4). Total and non-specific bindings (in the presence of 10 μM of unlabeled 1-[(1S*,2S*)-2-hydroxy-2-(4-hydroxyphenyl)-1-methylethyl]-4-phenylpiperidin-4-ol) were determined in a range of [^3H]-1-[(1S*,2S*)-2-hydroxy-2-(4-hydroxyphenyl)-1-methylethyl]-4-phenylpiperidin-4-ol concentrations (0.625 nM to 60 nM).
For the competition assay, test compounds were incubated in duplicate with 5 nM [^3H]-1-[(1S*,2S*)-2-hydroxy-2-(4-hydroxyphenyl)-1-methylethyl]-4-phenylpiperidin-4-ol and 50 μg protein of P2 membrane for 60 minutes at room temperature in a final 100 μl of 50 mM Tris HCl buffer (pH7.4). Nonspecific binding was determined by 10 μM of unlabeled 1-[(1S*,2S*)-2-hydroxy-2-(4-hydroxyphenyl)-1-methylethyl]-4-phenylpiperidin-4-ol (25 μl). The saturation derived KD gained in saturation assay was used for all Ki calculations.
All incubations were terminated by rapid vacuum filtration over 0.2% polyethyleneimine soaked Whatman GF/B glass fibre filter paper using a SKATRON cell harvester followed by three washes with ice-cold filtration buffer (5 mM Tris HCl, pH 7.4.). Receptor-bound radioactivity was quantified by liquid scintillation counting using Packard LS counter. Competition assays were performed by counting Wallac GF/B filters on Betaplate scintillation counter (Wallac).

HERG potassium channel = HERG potassium channel (Homo sapiens, UniProt Q12809); experiment: Inhibition at HERG potassium channel (prior-art compound); details: background statement on prior-art compound of WO 0208928
Chain of HERG potassium channel (Q12809 whole entry): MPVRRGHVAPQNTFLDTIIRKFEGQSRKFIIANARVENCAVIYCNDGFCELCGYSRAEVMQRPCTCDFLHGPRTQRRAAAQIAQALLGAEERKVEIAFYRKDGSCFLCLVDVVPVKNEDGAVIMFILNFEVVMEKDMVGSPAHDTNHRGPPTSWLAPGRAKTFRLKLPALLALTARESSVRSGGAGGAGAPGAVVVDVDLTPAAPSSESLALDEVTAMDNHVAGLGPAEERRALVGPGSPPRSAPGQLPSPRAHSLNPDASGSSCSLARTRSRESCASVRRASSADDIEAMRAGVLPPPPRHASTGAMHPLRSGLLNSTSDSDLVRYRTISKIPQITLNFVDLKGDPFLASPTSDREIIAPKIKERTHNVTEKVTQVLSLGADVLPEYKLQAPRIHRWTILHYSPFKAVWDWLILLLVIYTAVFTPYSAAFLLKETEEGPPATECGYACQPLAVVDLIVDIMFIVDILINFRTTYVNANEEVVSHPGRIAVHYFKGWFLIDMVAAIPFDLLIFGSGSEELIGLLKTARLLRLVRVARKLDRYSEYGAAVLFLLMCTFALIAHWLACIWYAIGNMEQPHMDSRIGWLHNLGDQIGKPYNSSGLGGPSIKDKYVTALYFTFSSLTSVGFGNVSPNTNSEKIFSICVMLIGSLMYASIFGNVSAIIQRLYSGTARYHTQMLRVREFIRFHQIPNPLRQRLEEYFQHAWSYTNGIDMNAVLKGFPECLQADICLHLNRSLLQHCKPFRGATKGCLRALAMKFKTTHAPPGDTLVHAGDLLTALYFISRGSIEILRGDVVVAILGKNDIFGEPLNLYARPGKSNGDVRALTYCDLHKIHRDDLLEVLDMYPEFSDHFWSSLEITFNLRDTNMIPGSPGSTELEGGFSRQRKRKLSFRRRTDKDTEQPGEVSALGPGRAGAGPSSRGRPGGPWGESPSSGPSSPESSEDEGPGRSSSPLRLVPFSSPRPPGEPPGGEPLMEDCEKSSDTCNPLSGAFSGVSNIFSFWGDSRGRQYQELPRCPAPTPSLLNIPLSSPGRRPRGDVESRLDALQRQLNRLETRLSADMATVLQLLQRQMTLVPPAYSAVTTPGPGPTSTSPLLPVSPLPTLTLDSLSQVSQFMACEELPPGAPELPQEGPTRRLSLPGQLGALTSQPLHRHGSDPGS

Chain of Human HERG (Q12809 whole entry): as above
T1 sequence (Q00960 27-1482, other chains not shown): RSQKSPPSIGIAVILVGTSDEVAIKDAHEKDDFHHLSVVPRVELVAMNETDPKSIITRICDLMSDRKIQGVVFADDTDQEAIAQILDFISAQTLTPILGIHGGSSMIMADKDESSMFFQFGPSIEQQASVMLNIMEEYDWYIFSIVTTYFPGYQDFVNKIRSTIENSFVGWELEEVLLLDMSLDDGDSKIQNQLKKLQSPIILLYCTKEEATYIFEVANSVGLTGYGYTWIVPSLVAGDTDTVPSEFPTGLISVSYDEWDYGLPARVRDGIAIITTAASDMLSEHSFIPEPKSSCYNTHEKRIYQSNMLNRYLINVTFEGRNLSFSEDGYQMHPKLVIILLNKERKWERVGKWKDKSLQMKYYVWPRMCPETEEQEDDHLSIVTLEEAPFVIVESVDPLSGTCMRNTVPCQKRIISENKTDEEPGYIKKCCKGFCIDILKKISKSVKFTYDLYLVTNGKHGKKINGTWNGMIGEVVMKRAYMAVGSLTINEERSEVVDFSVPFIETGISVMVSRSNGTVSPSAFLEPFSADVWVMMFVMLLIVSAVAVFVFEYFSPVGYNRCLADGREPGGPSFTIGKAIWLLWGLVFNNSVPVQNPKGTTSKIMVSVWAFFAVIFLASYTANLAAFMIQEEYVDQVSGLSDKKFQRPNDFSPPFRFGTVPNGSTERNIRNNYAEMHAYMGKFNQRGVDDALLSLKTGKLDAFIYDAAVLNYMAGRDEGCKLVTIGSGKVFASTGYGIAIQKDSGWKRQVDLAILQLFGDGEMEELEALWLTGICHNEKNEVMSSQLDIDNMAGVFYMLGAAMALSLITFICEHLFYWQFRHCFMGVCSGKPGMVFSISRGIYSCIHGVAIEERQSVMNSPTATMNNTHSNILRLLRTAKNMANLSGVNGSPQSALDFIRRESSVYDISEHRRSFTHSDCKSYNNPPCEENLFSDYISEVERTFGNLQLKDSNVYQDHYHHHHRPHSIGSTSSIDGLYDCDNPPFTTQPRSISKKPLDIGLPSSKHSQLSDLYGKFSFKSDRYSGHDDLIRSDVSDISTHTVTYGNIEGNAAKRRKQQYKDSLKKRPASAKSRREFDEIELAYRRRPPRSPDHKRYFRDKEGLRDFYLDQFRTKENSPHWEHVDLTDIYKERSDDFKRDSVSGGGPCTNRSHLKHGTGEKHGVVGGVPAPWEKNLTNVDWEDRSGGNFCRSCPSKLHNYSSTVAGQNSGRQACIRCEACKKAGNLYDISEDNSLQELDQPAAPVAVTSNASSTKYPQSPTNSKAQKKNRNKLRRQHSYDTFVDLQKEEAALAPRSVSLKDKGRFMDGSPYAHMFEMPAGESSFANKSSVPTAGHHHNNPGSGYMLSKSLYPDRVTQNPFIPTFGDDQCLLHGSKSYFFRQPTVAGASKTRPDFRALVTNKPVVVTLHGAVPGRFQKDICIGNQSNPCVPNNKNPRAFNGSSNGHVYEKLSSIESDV

## O=C(NC[C@H]1CC[C@@H](OCCc2ccccc2)CC1)c1ccc(O)nc1 [Example 71, 6-Hydroxy-N-{[cis-4-(2-phenethoxy)cyclohexyl]methyl}nicotinamide]
Human HERG
  pIC50: < 4.00
NR2B receptor
  pIC50: 8.15

## O=C(NCC1(O)CCC(COCc2cccc(F)c2)CC1)c1ccc(O)c(F)c1 (stereo not drawn) [Example 50, 3-Fluoro-N-[(trans-4-{[(3-fluorobenzyl)oxy]methyl}-1-1-hydroxycyclohexyl)methyl]-hydroxybenzamide]
Human HERG
  pIC50: < 4.00
NR2B receptor
  pIC50: 7.56

## O=C(NCC1CCN(CCCc2ccccc2)CC1)c1ccc(O)cc1 [Compound (i)]
HERG potassium channel
  pIC50: > 5.52

— patent US20070167452A1, “Therapeutic amide derivatives” (PFIZER, INC., priority 2004, published 2007)
